Source: ChEMBL document CHEMBL1201862, “PubChem BioAssay data set” (2004)
Activity calls are given as the source filed them.

Assays:
[1] = molecular target: T1, Adenosylmethionine-8-amino-7-oxononanoate aminotransferase (Mycobacterium tuberculosis, UniProt P9WQ81); assay: Mycobacterium tuberculosis BioA enzyme inhibitor Measured in Biochemical System Using Plate Reader - 2163-02_Inhibitor_Dose_CherryPick_Activity.; type: functional, Mycobacterium tuberculosis UT205
T1 sequence (P9WQ81 whole entry): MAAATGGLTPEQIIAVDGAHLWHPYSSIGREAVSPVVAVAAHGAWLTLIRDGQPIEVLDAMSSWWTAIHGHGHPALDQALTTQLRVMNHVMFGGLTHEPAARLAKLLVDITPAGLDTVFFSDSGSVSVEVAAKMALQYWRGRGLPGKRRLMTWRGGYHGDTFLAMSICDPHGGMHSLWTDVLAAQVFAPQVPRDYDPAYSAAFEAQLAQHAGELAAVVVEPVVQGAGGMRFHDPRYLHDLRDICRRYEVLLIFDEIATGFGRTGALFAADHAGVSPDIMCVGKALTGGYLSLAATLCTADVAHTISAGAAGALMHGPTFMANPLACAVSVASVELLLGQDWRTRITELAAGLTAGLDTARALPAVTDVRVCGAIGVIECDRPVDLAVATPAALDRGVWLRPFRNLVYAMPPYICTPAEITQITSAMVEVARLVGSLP

Hexokinase HKDC1 = molecular target: T2, Hexokinase HKDC1 (Homo sapiens, UniProt Q2TB90); assay: inhibition of HKDC1 glucose phosphorylation – biochemical, W721R variant, dose response (AID 504729); type: functional
T2 sequence (Q2TB90 whole entry): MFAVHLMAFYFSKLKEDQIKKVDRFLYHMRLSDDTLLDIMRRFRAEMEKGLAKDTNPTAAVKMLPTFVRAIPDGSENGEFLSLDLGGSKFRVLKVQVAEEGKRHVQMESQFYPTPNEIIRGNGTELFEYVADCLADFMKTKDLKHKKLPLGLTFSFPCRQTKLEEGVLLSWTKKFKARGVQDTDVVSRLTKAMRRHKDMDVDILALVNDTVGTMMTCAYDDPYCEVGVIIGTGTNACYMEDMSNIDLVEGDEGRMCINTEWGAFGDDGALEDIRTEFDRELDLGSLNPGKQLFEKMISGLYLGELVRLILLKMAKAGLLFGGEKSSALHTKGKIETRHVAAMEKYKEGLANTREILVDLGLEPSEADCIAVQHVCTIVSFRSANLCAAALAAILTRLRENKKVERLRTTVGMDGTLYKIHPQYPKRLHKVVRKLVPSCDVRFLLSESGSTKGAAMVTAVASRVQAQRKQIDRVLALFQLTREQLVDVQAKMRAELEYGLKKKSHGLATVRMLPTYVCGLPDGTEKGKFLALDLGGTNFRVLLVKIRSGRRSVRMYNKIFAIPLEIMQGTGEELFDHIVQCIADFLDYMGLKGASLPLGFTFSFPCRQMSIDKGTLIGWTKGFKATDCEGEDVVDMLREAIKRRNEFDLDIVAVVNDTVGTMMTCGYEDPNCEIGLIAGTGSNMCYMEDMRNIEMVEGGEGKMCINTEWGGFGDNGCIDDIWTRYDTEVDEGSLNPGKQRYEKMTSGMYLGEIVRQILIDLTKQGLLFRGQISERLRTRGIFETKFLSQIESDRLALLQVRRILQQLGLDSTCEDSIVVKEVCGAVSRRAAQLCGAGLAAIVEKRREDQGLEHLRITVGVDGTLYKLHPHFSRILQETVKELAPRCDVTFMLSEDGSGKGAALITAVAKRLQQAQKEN

Procathepsin L = Procathepsin L (Homo sapiens, UniProt P07711)
Aspartyl aminopeptidase = Aspartyl aminopeptidase (Plasmodium falciparum 3D7, UniProt Q8I2J3)
Oxytocin receptor = Oxytocin receptor (Homo sapiens, UniProt P30559); assay: Fluorescence-based cell-based high throughput dose response assay for agonists of the Oxytocin Receptor (OXTR). [Related pubchem assays: 2435 (Primary screen (OXTR agonists in singlicate)), 434991 (Counterscreen (V1R agonists in triplicate)), 2482 (Summary (OXTR agonists)), 434963 (Confirmation screen (OXTR agonists in triplicate))]; type: functional
Vasopressin V1a receptor = Vasopressin V1a receptor (Homo sapiens, UniProt P37288); assay: Counterscreen for Oxytocin Receptor (OXTR) agonists: Fluorescence-based cell-based high throughput dose response assay to identify agonists of the vasopressin 1 receptor (V1R). [Related pubchem assays: 2435 (Primary screen (OXTR agonists in singlicate)), 434991 (Counterscreen (V1R agonists in triplicate)), 2482 (Summary (OXTR agonists)) …; type: functional
[2] = molecular target: Glyceraldehyde-3-phosphate dehydrogenase (Homo sapiens, UniProt P04406)
[3] = molecular target: T3, Tyrosine-protein phosphatase non-receptor type 7 (Homo sapiens, UniProt P35236); type: functional
T3 sequence (P35236 whole entry): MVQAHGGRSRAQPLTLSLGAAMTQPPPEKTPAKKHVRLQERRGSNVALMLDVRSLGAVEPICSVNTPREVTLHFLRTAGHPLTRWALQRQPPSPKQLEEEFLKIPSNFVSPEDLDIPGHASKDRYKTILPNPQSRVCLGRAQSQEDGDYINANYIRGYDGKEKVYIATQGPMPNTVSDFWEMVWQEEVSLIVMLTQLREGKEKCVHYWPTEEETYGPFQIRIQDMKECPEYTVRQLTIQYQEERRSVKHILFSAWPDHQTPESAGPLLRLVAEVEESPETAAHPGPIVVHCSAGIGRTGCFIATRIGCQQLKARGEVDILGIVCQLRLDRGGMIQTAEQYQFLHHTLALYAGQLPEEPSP

[4] = molecular target: T4, Dual specificity protein phosphatase 6 (Rattus norvegicus, UniProt Q64346)
T4 sequence (Q64346 whole entry): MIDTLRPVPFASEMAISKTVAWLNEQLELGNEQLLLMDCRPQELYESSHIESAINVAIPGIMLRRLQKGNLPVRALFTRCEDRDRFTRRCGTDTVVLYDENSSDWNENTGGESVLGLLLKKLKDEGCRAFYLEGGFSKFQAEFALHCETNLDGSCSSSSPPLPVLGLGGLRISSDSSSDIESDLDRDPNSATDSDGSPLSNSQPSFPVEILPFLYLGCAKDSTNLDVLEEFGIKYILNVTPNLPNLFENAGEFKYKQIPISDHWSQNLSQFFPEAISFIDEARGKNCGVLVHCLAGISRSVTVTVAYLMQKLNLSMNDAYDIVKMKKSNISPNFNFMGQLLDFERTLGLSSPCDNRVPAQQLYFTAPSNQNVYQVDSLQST

[5] = molecular target: T5, Dual specificity protein phosphatase 3 (Homo sapiens, UniProt P51452); assay: SAR VHR1 Fluorescent Assay for In Vitro dose response studies. [Related pubchem assays (depositor defined):AID1654, AID1661, AID1878, AID1992, AID2004, AID2070, AID2085]; type: functional
[6] = molecular target: T4, Dual specificity protein phosphatase 6; type: functional
[7] = molecular target: T5, Dual specificity protein phosphatase 3; assay: MOA VHR1 Fluorescent secondary assay for identification of redox-state modulating compounds. [Related pubchem assays (depositor defined):AID1654, AID1661, AID1878, AID1957]
[8] = molecular target: T3, Tyrosine-protein phosphatase non-receptor type 7; assay: redox-active compounds inhibiting HePTP phosphatase – biochemical, fluorescence, mechanism study (AID 2068); type: functional

T5 sequence (P51452 whole entry): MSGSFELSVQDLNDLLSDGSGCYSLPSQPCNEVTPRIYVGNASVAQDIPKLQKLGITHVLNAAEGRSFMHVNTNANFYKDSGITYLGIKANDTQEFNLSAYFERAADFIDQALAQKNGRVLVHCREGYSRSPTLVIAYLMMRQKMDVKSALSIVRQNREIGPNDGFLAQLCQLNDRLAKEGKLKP
Chain of Procathepsin L (P07711 whole entry): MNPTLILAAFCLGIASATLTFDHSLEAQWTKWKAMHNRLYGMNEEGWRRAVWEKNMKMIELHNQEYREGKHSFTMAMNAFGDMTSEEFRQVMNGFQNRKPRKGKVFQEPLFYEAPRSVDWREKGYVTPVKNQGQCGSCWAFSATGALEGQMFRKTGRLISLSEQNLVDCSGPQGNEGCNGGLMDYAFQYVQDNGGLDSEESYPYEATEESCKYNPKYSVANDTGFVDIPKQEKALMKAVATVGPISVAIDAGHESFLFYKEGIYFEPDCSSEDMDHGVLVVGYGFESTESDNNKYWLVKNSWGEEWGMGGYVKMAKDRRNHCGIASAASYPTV
Chain of Glyceraldehyde-3-phosphate dehydrogenase (P04406 whole entry): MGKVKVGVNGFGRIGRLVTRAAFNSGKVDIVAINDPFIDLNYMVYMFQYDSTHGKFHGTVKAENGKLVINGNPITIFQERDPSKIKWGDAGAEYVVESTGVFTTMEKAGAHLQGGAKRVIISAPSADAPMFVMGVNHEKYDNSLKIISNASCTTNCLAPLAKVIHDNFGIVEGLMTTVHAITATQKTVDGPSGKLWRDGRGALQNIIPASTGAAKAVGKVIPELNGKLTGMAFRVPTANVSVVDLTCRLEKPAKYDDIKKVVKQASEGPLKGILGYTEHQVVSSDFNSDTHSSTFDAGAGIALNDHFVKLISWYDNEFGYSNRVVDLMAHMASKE
Chain of Oxytocin receptor (P30559 whole entry): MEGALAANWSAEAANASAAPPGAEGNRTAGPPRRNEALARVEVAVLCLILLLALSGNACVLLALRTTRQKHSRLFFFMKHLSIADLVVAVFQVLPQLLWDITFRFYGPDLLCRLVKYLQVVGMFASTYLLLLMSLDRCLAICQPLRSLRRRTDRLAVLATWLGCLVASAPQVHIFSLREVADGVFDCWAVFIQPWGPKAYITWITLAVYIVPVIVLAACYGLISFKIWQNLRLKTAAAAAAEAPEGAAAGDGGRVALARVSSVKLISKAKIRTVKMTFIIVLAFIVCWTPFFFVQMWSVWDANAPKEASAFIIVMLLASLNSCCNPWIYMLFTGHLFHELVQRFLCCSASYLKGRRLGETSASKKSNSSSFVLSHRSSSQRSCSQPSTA
Chain of Aspartyl aminopeptidase (Q8I2J3 whole entry): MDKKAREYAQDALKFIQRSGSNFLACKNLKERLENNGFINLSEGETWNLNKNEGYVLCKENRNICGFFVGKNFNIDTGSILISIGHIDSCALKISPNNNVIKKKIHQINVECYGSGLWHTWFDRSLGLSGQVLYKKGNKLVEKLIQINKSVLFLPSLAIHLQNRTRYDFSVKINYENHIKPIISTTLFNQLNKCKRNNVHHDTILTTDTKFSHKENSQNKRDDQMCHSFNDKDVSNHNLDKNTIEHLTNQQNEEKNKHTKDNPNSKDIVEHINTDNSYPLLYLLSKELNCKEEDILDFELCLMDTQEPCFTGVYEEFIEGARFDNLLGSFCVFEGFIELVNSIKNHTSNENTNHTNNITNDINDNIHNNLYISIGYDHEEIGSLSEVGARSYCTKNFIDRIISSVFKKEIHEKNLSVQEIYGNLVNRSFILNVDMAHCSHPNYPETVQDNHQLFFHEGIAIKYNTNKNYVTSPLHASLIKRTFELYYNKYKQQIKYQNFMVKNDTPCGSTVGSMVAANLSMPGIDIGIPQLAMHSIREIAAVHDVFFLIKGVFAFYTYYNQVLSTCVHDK
Chain of Vasopressin V1a receptor (P37288 whole entry): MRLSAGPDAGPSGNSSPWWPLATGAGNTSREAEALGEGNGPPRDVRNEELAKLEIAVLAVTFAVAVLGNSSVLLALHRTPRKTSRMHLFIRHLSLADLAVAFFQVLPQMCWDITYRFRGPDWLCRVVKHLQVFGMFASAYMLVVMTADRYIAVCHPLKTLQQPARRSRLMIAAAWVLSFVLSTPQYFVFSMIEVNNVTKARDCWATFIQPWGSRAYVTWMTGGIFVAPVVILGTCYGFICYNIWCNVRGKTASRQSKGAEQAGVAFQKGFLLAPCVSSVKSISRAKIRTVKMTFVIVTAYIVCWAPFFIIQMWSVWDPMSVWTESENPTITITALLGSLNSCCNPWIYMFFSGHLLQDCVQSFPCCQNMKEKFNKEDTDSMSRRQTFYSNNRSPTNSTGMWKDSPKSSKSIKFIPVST

O=C(CSc1nnc(-c2cccnc2)[nH]1)Nc1ccnc2ccccc12
AC50 [1]: 6.07 µM (active) | IC50 (Hexokinase HKDC1): 13.1 µM (active)

O=C(Nc1cccc([N+](=O)[O-])c1)Nn1cnnc1
IC50 (Procathepsin L): > 59.6 µM (not active) | IC50 (Aspartyl aminopeptidase): 0.93 µM (active)

Cc1cc(-c2nnc(SCC(=O)Nc3ccccc3C(F)(F)F)o2)c(C)n1-c1ccccc1
EC50 (Oxytocin receptor): > 29.9 µM (not active) | EC50 (Vasopressin V1a receptor): > 29.9 µM (not active)

O=c1/c(=C/c2ccco2)sc2nc3cc(Br)cnc3n12
IC50 [2]: 27.8 µM (active) | IC50 [3]: 0.543 µM (active) | IC50 [4]: 4.4 µM (active) | IC50 [5]: 1.23 µM (active) | IC50 [6]: 6.58 µM (active) | IC50 [7]: 0.345 µM (active) | IC50 [8]: 0.127 µM (active)
